{
  "source": "patent US20040235922A1",
  "about": "“Compositions and methods for inducing adipose tissue cell death” (priority 2003, published 2004)",
  "key": {"[1]": {"tested_on": "Epi/Par fat pads (white adipose tissue)", "experiment": "Adipose tissue apoptosis assay, % DNA fragmentation (Example 1)", "format": "in vivo, mice", "details": "21 days", "protocol": "Animals: Five week old male (n=20) and female (n=20) ICR mice (Harlan Research Laboratories, Indianapolis, Ind.) were allowed to acclimate for one week prior to the experiment start date. Animals were housed singly in suspended wire cages and were provided ground rodent chow (ProLab® RMH 2500; Purina Mills, St. Louis, Mo.) and water ad libitum. Ambient room temperature was maintained and the light/dark cycle was 0600/1800 hours, respectively. Animals were cared for in accordance with the Guide for the Care and Use of Laboratory Animals (Institute of Laboratory Animal Resources Commission on Life Sciences National Research Council. Guide for the Care and Use of Laboratory Animals. National Academy of Sciences, 1996). Prior to the start of the study, animals were briefly anesthetized with isofluorane and an IPPT-200 transponder (programmable ID and temperature, BMDS, Seaford, Del.) was implanted subcutaneously between the scapulae.\nMaterials: Test articles included clenbuterol (Sigma Chemical Company, St. Louis, Mo., item # C5423) and ractopamine hydrochloride—Paylean® 9 (Elanco Animal Health, Indianapolis, Ind.). Clenbuterol is available as a pure product, and ractopamine is readily available as a type A medicated article. Paylean® 9 contains about 20 g ractopamine hydrochloride per kilogram in a ground corncob base. In order to achieve doses of 200 and 800 ppm it was necessary to add about […] of product per kilogram of diet. Control and clenbuterol diets were prepared with about 80 g of alphacel, which is a diluent used to mimic the effect of the corncob in the ractopamine product. The dose of clenbuterol used in this experiment was similar to those used in previous experiments with mice (Agbenyega E T, and Wareham A C. Effect of clenbuterol on skeletal muscle atrophy in mice induced by the glucocorticoid dexamethasone. Comp Biochem Physiol Comp Physiol 1992;102:141-145, Rothwell N. J., and Stock M J. Modification of body composition by clenbuterol in normal and dystrophic (mdx) mice. Biosci Rep 1985;5:755-760, Hyltander A, Svaninger G, and Lundholm K. The effect of clenbuterol on body composition in spontaneously eating tumour-bearing mice. Biosci Rep 1993;13:325-331, Hayes A, and Williams DA. Long-term clenbuterol administration alters the isometric contractile properties of skeletal muscle from normal and dystrophin-deficient mdx mice. Clin Exp Pharmacol Physiol 1994;21:757-765, Dupont-Versteegden EE. Exercise and clenbuterol as strategies to decrease the progression of muscular dystrophy in mdx mice. J Appl Physiol 1996;80:734-741).\nDNA Isolation and Apoptosis Assay: Only the Epi and Par fat pads had sufficient tissue for the apoptosis assay. Apoptosis was assayed in two ways: DNA isolated from fat tissue was separated into two fractions: fragmented and genomic DNA. First, the fragmented DNA was run on an agarose gel in order to identify a ladder pattern of internucleosomal DNA degradation that is characteristic of apoptosis. Second, apoptosis was quantified as the ratio of fragmented- to total-DNA, multiplied by 100. Briefly, approximately 50 mg of the Epi or Par white adipose tissue was homogenized in lysis buffer (10 mM Tris-HCL, pH 8.0, 10 mM EDTA, pH 8.0; 0.5% Triton X-100) and centrifuged at 14,000× g for 15 min to separate fragmented DNA from genomic DNA. The supernatant, containing fragmented DNA, was extracted with phenol-chloroform-isoamyl alcohol (25:24:1), and the DNA was precipitated by adding polyacryl carrier (Molecular Research Center, Inc., Cincinnati, Ohio) and ethanol. Genomic (non-fragmented) DNA was extracted from the pellet with DNAzol and the polyacryl carrier. DNA in each fraction was quantified by the PicoGreen method (Molecular Probes, Inc., Eugene, Oreg.) and fluorescence was measured using a SpectroMax Gemini (Molecular Devices).\nStatistical Analysis: Analysis of variance (SAS) was used to determine significance of treatment and gender effects. […]"}, "[2]": {"experiment": "Body composition analysis by PIXImus densitometry in WT and GDF-8 KO mice (Example 2)", "format": "in vivo", "details": "200 ppm in diet, 21 days"}, "serum leptin": {"tested_on": "serum leptin", "experiment": "Serum leptin concentration in WT and GDF-8 KO mice (Example 2)", "format": "in vivo", "details": "200 ppm in diet", "protocol": "Animals: Twelve-week old male (n=10) and female (n=10) GDF-8 (−/−) knockout mice and male (n=10) and female (n=10) GDF-8 (+/+) WT mice were used in the study. GDF-8 knockout mice, which were derived from the 129/SvJ mouse strain, were originally obtained from MetaMorphix Inc. and were bred in-house for the study. Mice were housed singly in suspended wire cages in a room maintained at 22±1 C and with a 12:12 hour light/dark cycle. Mice were provided ground rodent chow (ProLab® RMH 2500; Purina Mills, St. Louis, Mo.) and water ad libitum. Mice were cared for in accordance with the Guide for the Care and Use of Laboratory Animals.\nMaterials: Clenbuterol (Sigma Chemical Company, St. Louis, Mo., item# C5423), was thoroughly mixed into the ground rodent chow to provide a 200 ppm concentration.\nDaily Observations: Food intake was measured daily, and body weight was measured on days 0, 3, 7, 10, 14, 17, 20, and 21 at approximately 1430 h during the treatment period. At 15 weeks of age (day 21), a final body weight measurement was obtained approximately one hour prior to euthanasia, and mice were sacrificed by decapitation following CO2 asphyxiation."}, "mouse adipocytes [3]": {"tested_on": "mouse adipocytes", "details": "in vitro; cited from earlier work"}, "mouse adipocytes [4]": {"tested_on": "mouse adipocytes", "details": "in vitro; cited from earlier work", "remark": "listed apart in the source"}, "[5]": {"tested_on": "female and male WT and GDF-8 KO mice", "experiment": "Adipose, muscle and heart tissue weights in WT and GDF-8 KO mice (Example 2)", "details": "200 ppm in diet, 21 days"}, "[6]": {"details": "WT and GDF-8 KO mice, Mean ± SEM"}},
  "note": "“Also recorded” adds a separate entry of the source.",
  "data": [
    {"smiles": "CC(C)(C)NCC(O)c1cc(Cl)c(N)c(Cl)c1", "note": "(stereo not shown) [Clenbuterol, clenbuterol]", "values": [
      {"measurement": "Percent DNA fragmentation (apoptosis) in the Epi/Par fat pad compared to control", "setting": "[1]; 200 ppm clenbuterol, 800 ppm ractopamine in diet, p<0.05, listed as clenbuterol", "result": "increased; also recorded: significant increase in apoptosis"},
      {"measurement": "Adipose tissue apoptosis (% DNA fragmentation) in Epi/Par fat pads", "setting": "[1]; 200 ppm in diet, mice, control 1.7±0.4%", "result": "5.2 ± 1.1", "unit": "%"},
      {"measurement": "DNA fragmentation in retroperitoneal or inguinal fat pads", "setting": "[1]; diet, mice", "result": "Neither clenbuterol nor ractopamine treatments increased"},
      {"measurement": "% Fat", "setting": "[2]; [6]", "result": "15.7 ± 1.0", "unit": "%"},
      {"measurement": "Bone Mineral Content", "setting": "[2]; [6]", "result": "0.52 ± 0.02", "unit": "g"},
      {"measurement": "Bone Mineral Density", "setting": "[2]; [6]", "result": "0.06 ± 0.001", "unit": "g"},
      {"measurement": "Fat", "setting": "[2]; [6]", "result": "4.1 ± 0.2", "unit": "g"},
      {"measurement": "Lean", "setting": "[2]; [6]", "result": "22.7 ± 1.1", "unit": "g"},
      {"measurement": "Effect on BMD, BMC, area, lean weight, fat weight, or fat %", "setting": "[2]; main effects", "result": "no effect"},
      {"measurement": "Effect on serum leptin concentrations", "setting": "serum leptin", "result": "did not significantly affect; also recorded: not affected"},
      {"measurement": "Serum Leptin Concentration", "setting": "serum leptin; 20 days, Mean ± SEM", "result": "3.98 ± 0.49", "unit": "ng/mL"},
      {"measurement": "Insulin-induced lipolysis in mouse adipocytes", "setting": "mouse adipocytes [3]", "result": "inhibited"},
      {"measurement": "Lipolysis in mouse adipocytes", "setting": "mouse adipocytes [3]", "result": "stimulated"},
      {"measurement": "Insulin binding to mouse adipocytes", "setting": "mouse adipocytes [4]", "result": "decreased"},
      {"measurement": "EPI/PAR (and RP) fat pad weights compared to control", "setting": "[5]", "result": "decreased; also recorded: reduced"},
      {"measurement": "Heart weight compared to control", "setting": "[5]", "result": "increased"},
      {"measurement": "Weights of dissected skeletal muscles", "setting": "[5]", "result": "did not affect; also recorded: no effect"},
      {"measurement": "EPI/PAR (and RP) fat pad weights compared to control", "setting": "[5]; listed as clenbuterol", "result": "reduced; also recorded: smaller"},
      {"measurement": "Heart weight compared to control", "setting": "[5]; listed as clenbuterol", "result": "significantly increased"}
    ]}
  ]
}
